Like-named read-outs stand apart in the source and are kept apart here.
Tests used:
CYP2B6 = test system: CYP2B6; set-up: method as in Investigator's Brochure; settings: ref Investigator's Brochure; cited from earlier work
bvFTD patients [1] = assay: Frontotemporal volume (FTV) change by MRI (Tensor-Based Morphometry); type: in vivo, human; settings: Patients receiving 8 mg/day, vs Cmax,ss ≤[…], 52 weeks
Text: (§1) The two doses were provided in identical blister packages as visually identical oral tablets to be taken for up to 52 weeks. The primary outcome was the Addenbrookes Cognitive Examination – Revised (ACE-R). The Functional Activities Questionnaire (FAQ) and reduction in progression of whole brain atrophy were alternative co-primary outcomes. Other outcomes included: Modified Alzheimer’s Disease Cooperative Study – Clinical Global Impression of Change (Modified-CGIC) determined by a third independent rater; Frontotemporal Dementia Rating Scale (FRS); MMSE (from MMSE items incorporated into ACE-R); Addenbrookes Cognitive Examination – III (a revised version of ACE-R which excludes MMSE items subject to copyright restrictions); change in brain volume measured by MRI in frontal and temporal lobes (FTV) and lateral ventricles (LVV); and the effect of hydromethylthionine in patients with known genetic mutations associated with bvFTD. Blood was collected prospectively for the purpose of population PK analyses.
(§2) MRI scans were obtained at screening and weeks 16, 32, and 52. The acquisition protocol was standardized across sites and all data were centrally collected, quality-controlled, and analyzed by the imaging core laboratory (Bioclinica). MRI data included a 3D sagittal T1-weighted sequence (using parameters compatible with the ADNI protocol) which was used for all volumetric analyses. […]

AD patients = test system: AD patients; set-up: method as in PMID 31658058; settings: cited from earlier work
[2] = test system: subjects with AD or bvFTD; set-up: method as in Developmental Safety Update Report #3; settings: 1713 subjects randomized to LMTM (or matching placebo), blinded, as of 14 October 2014 ref Developmental Safety Update Report #3; cited from earlier work
bvFTD patients [3] = assay: UPDRS Part III motor safety outcome, 52-week Phase III trial; type: in vivo, human
Description: (§3) The primary analyses were specified as a mixed model, repeated-measures analysis with an unstructured covariance matrix and no imputation for missing data. The model included visit (three levels corresponding to assessments at weeks 16, 32, and 52), treatment group (two levels, 4 mg or 100 mg twice a day), a visit by treatment group interaction term, use of AD-labelled medications (two levels, using or not using), geographic region (three levels: North America, Asia/Australia, Europe), and baseline value of the variable analyzed. The individual comparisons were implemented through contrasts. The Bonferroni-Holm correction was used to take account of multiplicity arising from alternative co-primary outcomes (FAQ and whole brain atrophy). We used the same method for all secondary analyses in predefined gated sequences such that no further adjustment of alpha (0.05) was needed.
Blood samples for assessment of parent MT, N-desmethyl MT, and total MT (sum of parent MT and a labile LMT conjugate), were collected from each patient on the first treatment visit (two samples: pre-dose and approximately 3.5 h after the dose) and at each subsequent on-treatment visit. […] MT levels in plasma were measured using liquid chromatography-tandem mass spectrometry assay. […] Model development and estimation of steady state maximum plasma concentration (Cmax,ss) were determined independently by the Institute of Clinical Pharmacodynamics (ICPD, NY, USA). Cmax,ss estimates using a model validated in Phase I studies were based on in-clinic plasma concentration data obtained on Day 1 when the dose-sampling interval was accurately recorded. […] Change in ACE-R, ACE-III, FAQ, MMSE, Modified-CGIC, FRS, whole brain volume (WBV), lateral ventricular volume (LVV), and frontotemporal volume (FTV), as well as UPDRS Part III, were expressed as a function of Cmax,ss estimates grouped into four groups described in the results section. […]

bvFTD patients [4] = assay: Addenbrookes Cognitive Examination – III (ACE-III), 52-week Phase III trial; type: in vivo, human
Text: as §1
The primary analyses were specified as a mixed model, repeated-measures analysis with an unstructured covariance matrix and no imputation for missing data. […]

[5] = Population PK: plasma-modeled parent MT Cmax,ss; type: in vivo, human; settings: for Cmax: both sexes, human, plasma, oral
Description: Blood samples for assessment of parent MT, N-desmethyl MT, and total MT (sum of parent MT and a labile LMT conjugate), were collected from each patient on the first treatment visit (two samples: pre-dose and approximately 3.5 h after the dose) and at each subsequent on-treatment visit. The protocol specified that PK plasma sampling was to be conducted only at sites with adequate facilities (i.e., a refrigerated centrifuge and adequate capability to freeze samples reliably). Blinded analyses were conducted at the University of Aberdeen GLP Test Facility. MT levels in plasma were measured using liquid chromatography-tandem mass spectrometry assay. The method was validated for use in the Phase III studies over the range 0.2 to 10 ng/ml. […] Model development and estimation of steady state maximum plasma concentration (Cmax,ss) were determined independently by the Institute of Clinical Pharmacodynamics (ICPD, NY, USA). Cmax,ss estimates using a model validated in Phase I studies were based on in-clinic plasma concentration data obtained on Day 1 when the dose-sampling interval was accurately recorded. The percentage of patients with Day 1 exposure levels below the lower calibration limit of the assay was used to define a proxy for placebo in post-hoc binary statistical comparisons of patients with low and high exposure to the drug with a view to informing the design of a future placebo-controlled trial. Change in ACE-R, ACE-III, FAQ, MMSE, Modified-CGIC, FRS, whole brain volume (WBV), lateral ventricular volume (LVV), and frontotemporal volume (FTV), as well as UPDRS Part III, were expressed as a function of Cmax,ss estimates grouped into four groups described in the results section. Cmax,ss values outside 3x the interquartile range were excluded from determination of concentration-response relationships, but were included in inferential statistical analyses.

bvFTD patients [6] = assay: Modified-CGIC, 52-week Phase III trial; type: in vivo, human
Text: as §1, §3
The concentration-response analyses used a Mixed-effect Model Repeat Measurement (MMRM) with per-subject correction and an unstructured covariance matrix according to the following formula: […]

bvFTD patients [7] = assay: Lateral ventricular volume (LVV) change by MRI; type: in vivo, human; settings: Patients receiving 8 mg/day, vs Cmax,ss ≤[…], 52 weeks
Text: as §1, §2

[8] = 8 mg/day (n = 110), modeled change from baseline at 52 weeks
[9] = 8 mg/day, plasma levels above vs below […] threshold
[10] = 200 mg/day (n = 104) vs 8 mg/day, 52 weeks

Q: With `CN(C)c1ccc2c(c1)Sc1cc(N(C)C)ccc1N2` [hydromethylthionine, leuco-methylthioninium bis(hydromethanesulphonate)] as the compound, how does the “induction of CYP2B6” value (CYP2B6) read?
A: w eak in ducer

Q: And the “FTV: Difference±SEM for Cmax,ss > […]” value (bvFTD patients [1])?
A: 0.72±0.27 cm^3

Q: And the “steady state plasma levels with steep concentration-response relationships on cognitive and MRI outcomes in AD” value (AD patients; 8 mg/day dose, AD ref 49)?
A: 0.3 to 0.8 ng/mL

Q: And the “estimated brain concentration required for pharmacological activity” value (AD patients)?
A: 0.02–0.06 μM

Q: What about the “plasma concentration threshold (Cmax,ss) identified in mild/moderate AD” value (AD patients) of the same compound?
A: 0.373 ng/mL

Q: And the “predicted optimal dose for treatment of AD” value (AD patients)?
A: about 16 mg/day

Q: And the “dose sufficient to ensure that all patients have plasma levels above the threshold required for pharmacological activity” value (AD patients; combined AD and bvFTD populations ref 49)?
A: 16 mg/day

Q: What about the “plasma concentrations not associated with any additional benefit in AD” value (AD patients; doses 150–250 mg/day, AD ref 49) of the same compound?
A: 4 to 21 ng/mL

Q: What about the “cases of possible serotonin toxicity reported as AEs” value [2] of the same compound?
A: 2

Q: What about the “UPDRS – part III: Decline±SEM for LMTM 8 mg/day group” value (bvFTD patients [3]; [8]) of the same compound?
A: 3.90±1.06

Q: What about the “reduction in decline, UPDRS” value (bvFTD patients [3]; [9]) of the same compound?
A: 75%

Q: What about the “UPDRS – part III: Difference±SEM from LMTM 8 mg/day for 200 mg/day” value (bvFTD patients [3]; [10]) of the same compound?
A: –1.40±1.61

Q: And the “ACE-III: Decline±SEM for LMTM 8 mg/day group” value (bvFTD patients [4]; [8])?
A: –10.70±1.55

Q: What about the “ACE-III: Difference±SEM from LMTM 8 mg/day for 200 mg/day” value (bvFTD patients [4]; [10]) of the same compound?
A: 0.44±2.27

Q: What about the “Plasma-modeled parent MT Cmax,ss, Range” value ([5]; 200 mg/day) of the same compound?
A: 6.800 to 14.235 ng/mL

Q: What about the “plasma levels at 200 mg/day relative to the highest level seen at 8 mg/day” value ([5]; 80 patients receiving 200 mg/day) of the same compound?
A: 16 fold

Q: And the Cmax ([5]; 8 mg/day, 8 mg/day – Group 1, read-out: Plasma-modeled parent MT Cmax,ss, Mean (SD))?
A: 0.321 ng/mL

Q: And the Cmax ([5]; 8 mg/day, 8 mg/day – Group 1, read-out: Plasma-modeled parent MT Cmax,ss, Range)?
A: 0.281 to 0.346 ng/mL

Q: What about the Cmax ([5]; 8 mg/day, 8 mg/day – Group 2, read-out: Plasma-modeled parent MT Cmax,ss, Mean (SD)) of the same compound?
A: 0.355 ng/mL

Q: What about the Cmax ([5]; 8 mg/day, 8 mg/day – Group 2, read-out: Plasma-modeled parent MT Cmax,ss, Range) of the same compound?
A: 0.346 to 0.372 ng/mL

Q: What about the Cmax ([5]; 8 mg/day, 8 mg/day – Group 3, read-out: Plasma-modeled parent MT Cmax,ss, Mean (SD)) of the same compound?
A: 0.387 ng/mL

Q: What about the Cmax ([5]; 8 mg/day, 8 mg/day – Group 3, read-out: Plasma-modeled parent MT Cmax,ss, Range) of the same compound?
A: 0.373 to 0.409 ng/mL

Q: What about the Cmax ([5]; 8 mg/day, 8 mg/day – Group 4, read-out: Plasma-modeled parent MT Cmax,ss, Mean (SD)) of the same compound?
A: 0.47 ng/mL

Q: And the Cmax ([5]; 8 mg/day, 8 mg/day – Group 4, read-out: Plasma-modeled parent MT Cmax,ss, Range)?
A: 0.413 to 0.583 ng/mL

Q: What about the Cmax ([5]; 200 mg/day, read-out: Plasma-modeled parent MT Cmax,ss, Mean (SD)) of the same compound?
A: 9.04 ng/mL

Q: What about the Cmax ([5]; 200 mg/day, read-out: Plasma-modeled parent MT Cmax,ss, Range) of the same compound?
A: 6.8 to 14.2 ng/mL

Q: What about the “CGIC: Decline±SEM for LMTM 8 mg/day group” value (bvFTD patients [6]; 8 mg/day (n = 110), 52 weeks) of the same compound?
A: –1.05±0.11

Q: What about the “reduction in decline, Modified-CGIC” value (bvFTD patients [6]; [9]) of the same compound?
A: 48%

Q: What about the “CGIC: Difference±SEM from LMTM 8 mg/day for 200 mg/day” value (bvFTD patients [6]; [10]) of the same compound?
A: –0.04±0.16

Q: What about the “LVV: Difference±SEM for Cmax,ss > […]” value (bvFTD patients [7]) of the same compound?
A: –4.12±1.06 cm^3
